This is an account of results in patent US4062853A, “Chloro-pyridinyloxymethyl esters of thiocyanic acid” (The Dow Chemical Company, priority 1973, dated 1977).

Values after ≈ are worked out from the molar mass of the structure shown.

Holding throughout (format): cell-based
One experiment concerns Candida albicans. The experiment is described as follows: conventional agar dilution test, fungicidal activity, Candida albicans. To be noted: complete growth inhibition, read-out: Minimum Inhibitory Concentration. From the text: (§1) In representative operations, the products of the invention when tested for fungicidal activity using conventional agar dilution tests gave complete growth inhibition against the following organisms at the indicated concentrations in parts per million: […]
Background: In agar dilution, organisms are placed on agar that contains the substance at set levels.

For experiment [1], the system named is Trichophyton mentagrophytes. The experiment is described as follows: conventional agar dilution test, fungicidal activity, Trichophyton mentagrophytes. Conditions: complete growth inhibition, read-out: Minimum Inhibitory Concentration.
From the text: as §1

In the next experiment the test system is Candida pelliculosa. The experiment is described as follows: conventional agar dilution test, fungicidal activity, Candida pelliculosa. Conditions: Hansenula anomala, complete growth inhibition, read-out: Minimum Inhibitory Concentration.
From the text: as §1

A further experiment deals with Pullularia pullulans. The experiment is described as follows: conventional agar dilution test, fungicidal activity, Pullularia pullulans. Conditions: complete growth inhibition, read-out: Minimum Inhibitory Concentration.
From the text: as §1

A further experiment relates to Ceratocystis ips. The experiment is described as follows: conventional agar dilution test, fungicidal activity, Ceratocystis ips. Conditions: complete growth inhibition, read-out: Minimum Inhibitory Concentration.
From the text: as §1

Another experiment relates to Trichoderma sp. 42. As to the kind of experiment: conventional agar dilution test, fungicidal activity, Trichoderma sp. 42. To be noted: complete growth inhibition, read-out: Minimum Inhibitory Concentration.
From the text: as §1

Another experiment deals with Aspergillus terreus. The experiment is described as follows: conventional agar dilution test, fungicidal activity, Aspergillus terreus. To be noted: complete growth inhibition, read-out: Minimum Inhibitory Concentration.
From the text: as §1

A further experiment has as its system Rhizopus nigricans. The experiment is described as follows: conventional agar dilution test, fungicidal activity, Rhizopus nigricans. Conditions: Rhizopus stolonifer, complete growth inhibition, read-out: Minimum Inhibitory Concentration.
From the text: as §1

Take `N#CSCOc1nc(Cl)c(Cl)cc1Cl` [I, [(3,5,6-trichloro-2-pyridinyl)oxy]methyl thiocyanate]: the MIC was determined as 10 µg/mL (≈ 37.1 µM) with Candida albicans; 1 µg/mL (≈ 3.71 µM) in experiment [1]; 10 µg/mL (≈ 37.1 µM) in the experiment on Candida pelliculosa; 10 µg/mL (≈ 37.1 µM) in the experiment with Pullularia pullulans; 1 µg/mL (≈ 3.71 µM) in the experiment on Ceratocystis ips; 10 µg/mL (≈ 37.1 µM) with Trichoderma sp. 42. Moreover, the values for the MIC in the experiment on Aspergillus terreus and in the experiment on Rhizopus nigricans were 1 µg/mL (≈ 3.71 µM) and 10 µg/mL (≈ 37.1 µM), respectively.

For `N#CSCOc1c(Cl)c(Cl)nc(Cl)c1Cl` [II, Thiocyanic acid, [(2,3,5,6-tetrachloro-4-pyridinyl)oxy]-methyl ester], the MIC in the experiment with Candida albicans is more than 100 µg/mL; in experiment [1], 1 µg/mL (≈ 3.29 µM); with Candida pelliculosa, more than 100 µg/mL; in the experiment with Pullularia pullulans, 100 µg/mL (≈ 329 µM); in the experiment on Ceratocystis ips, 10 µg/mL (≈ 32.9 µM); in the experiment with Trichoderma sp. 42, more than 100 µg/mL. For the same compound, the MIC in the experiment with Aspergillus terreus is 10 µg/mL (≈ 32.9 µM); in the experiment on Rhizopus nigricans it was more than 100 µg/mL.

Take `N#CSCOc1c(Cl)cnc(Cl)c1Cl` [III, Thiocyanic acid, [(2,3,5-trichloro-4-pyridinyl)oxy]methyl ester]: the MIC in the experiment on Candida albicans was found to be 10 µg/mL (≈ 37.1 µM); in experiment [1], 1 µg/mL (≈ 3.71 µM); in the experiment on Candida pelliculosa, 10 µg/mL (≈ 37.1 µM); in the experiment on Pullularia pullulans, 1 µg/mL (≈ 3.71 µM); with Ceratocystis ips, 10 µg/mL (≈ 37.1 µM); in the experiment with Trichoderma sp. 42, 10 µg/mL (≈ 37.1 µM). Moreover, the figures for the MIC with Aspergillus terreus and in the experiment with Rhizopus nigricans were 1 µg/mL (≈ 3.71 µM) and 10 µg/mL (≈ 37.1 µM), respectively.

As for `N#CSCOc1nc(Cl)c(Cl)c(OCCl)c1Cl` [IV, Thiocyanic acid, [(3,5,6-trichloro-4-(chloromethoxy)-2-pyridinyl)oxy]methylester], the MIC in the experiment with Candida albicans came to 10 µg/mL (≈ 29.9 µM); in experiment [1], 1 µg/mL (≈ 2.99 µM); in the experiment with Candida pelliculosa, 10 µg/mL (≈ 29.9 µM); with Pullularia pullulans, 10 µg/mL (≈ 29.9 µM); in the experiment on Ceratocystis ips, 10 µg/mL (≈ 29.9 µM); in the experiment on Trichoderma sp. 42, 10 µg/mL (≈ 29.9 µM). For the same compound, the MIC is 10 µg/mL (≈ 29.9 µM) in the experiment with Aspergillus terreus and 100 µg/mL (≈ 299 µM) in the experiment on Rhizopus nigricans.

`N#CSCOc1nc(F)c(Cl)cc1Cl` [V, Thiocyanic acid, [(3,5-dichloro-6-fluoro-2-pyridinyl)oxy]methyl ester]: the MIC came out at 10 µg/mL (≈ 39.5 µM) in the experiment on Candida albicans; 1 µg/mL (≈ 3.95 µM) in experiment [1]; 10 µg/mL (≈ 39.5 µM) in the experiment with Candida pelliculosa; 10 µg/mL (≈ 39.5 µM) with Pullularia pullulans; 10 µg/mL (≈ 39.5 µM) in the experiment on Ceratocystis ips; 10 µg/mL (≈ 39.5 µM) in the experiment with Trichoderma sp. 42. The results for the MIC in the experiment with Aspergillus terreus and with Rhizopus nigricans were 1 µg/mL (≈ 3.95 µM) and 10 µg/mL (≈ 39.5 µM), respectively.

Turning to `N#CSCOc1cc(C(Cl)(Cl)Cl)cc(Cl)n1` [VI, Thiocyanic acid [(6-chloro-4-(trichloromethyl)-2-pyridinyl)-oxy]methyl ester], the MIC is 100 µg/mL (≈ 314 µM) with Candida albicans; 1 µg/mL (≈ 3.14 µM) in experiment [1]; 100 µg/mL (≈ 314 µM) in the experiment with Candida pelliculosa; 10 µg/mL (≈ 31.4 µM) in the experiment with Pullularia pullulans; 10 µg/mL (≈ 31.4 µM) in the experiment on Ceratocystis ips; 100 µg/mL (≈ 314 µM) with Trichoderma sp. 42. For the same compound, the MIC stood at 1 µg/mL (≈ 3.14 µM) in the experiment on Aspergillus terreus and 100 µg/mL (≈ 314 µM) with Rhizopus nigricans.
